Reference: US12295972B2, “Methods using freeze-dried platelet derivative compositions for restoring hemostasis in a subject” (Cellphire, Inc., priority 2021, dated 2025)
Entries after “also recorded” stand apart in the source; their conditions may differ. Where a SMILES comes first, the peptide text is derived from it. Bridges are numbered along the chain shown (N, C = ends). [ ]: non-standard residue; d: D form. hArg = N=C(N)NCCCC[C@H](N)C(=O)O; Mpa = O=C(O)CCS

How the values were obtained:
[1] = tested on: platelet rich plasma; test: T-TAS AR chip (collagen and tissue factor) occlusion, platelet rich plasma; format: cell-based, human
[2] = tested on: platelet function; conditions: in vivo; cited from earlier work
[3] = tested on: platelets in platelet-rich plasma (PRP); test: Transmission light aggregometry of platelets in PRP with antiplatelet agents; format: cell-based, human
Experimental: Plasma samples with platelet or FDPDs or combination of both are loaded into cuvettes and placed into the aggregometry chambers. The chambers warm the sample and provide constant stirring. The initiation of aggregation can be done by multiple types of […] agents not limited to thrombin, ADP, collagen and any agent know to stimulate platelet aggregation. […] The instrument begins the assay by first recording the light transmission previous to stimulation for 2 minutes. The stimulant of interest is then introduced by the technician and the change in light transmission is recorded overtime. The increase in light transmission corresponds to increase in platelet aggregation.

[4] = tested on: whole blood; test: T-TAS PL chip (collagen only) thrombus formation, whole blood; format: cell-based, human; conditions: 100 and 500 μM aspirin
Text: Platelets will aggregate with collagen and arachidonic acid stimulation. […] The PL chip system on the T-TAS® was used to emulate in vitro platelet binding and aggregation due to the exposure of collagen in the vasculature under shear conditions.
PL chips are run similarly to AR chips but this chip is only coated with collagen alone.

[5] = tested on: thrombin generation; test: Thrombin generation assay (TGA); format: biochemical, human; conditions: PPP from patients taking baby aspirin daily; absence of FDPDs
[6] = same 500 mg dose orally; cited from earlier work
[7] = tested on: platelet rich plasma; test: T-TAS AR chip (collagen and tissue factor) occlusion, platelet rich plasma; format: cell-based, human; conditions: for occlusion time of ADP stimulated PRP: ADP 2 μM, cangrelor 1 μM (n=4) or ticagrelor 500 ng/mL (n=5)
Experimental: The effect of cangrelor on platelet occlusion under shear was evaluated by T-TAS®.
Evaluation by T-TAS® using an AR chip. AR chips are characterized by a single channel containing collagen and tissue factor; they can be used to analyze clotting and platelet function.

[8] = tested on: whole blood; test: T-TAS AR chip occlusion, whole blood; format: cell-based, human; conditions: 6 μM eptifibatide
Text: The effect of FDPDs on shortening clotting times while in the presence of eptifibatide was also studied. The ability of FDPDs to recover occlusion times was studied on the T-TAS® system. The T-TAS® system measures occlusion time under shear forces with collagen and thromboplastin stimulation. The whole blood profile of occlusion and AUC on the AR T-TAS® chip lengthened and decreased, respectively, with eptifibatide. Eptifibatide extended the occlusion time of whole blood on the T-TAS® AR Chip in a dose-dependent manner. In this experiment, whole blood occluded at 8 minutes, and the occlusion time was extended to 16 minutes with 6 μM eptifibatide (FIG. 9). FDPDs reversed the inhibitory effect of eptifibatide on thrombus formation. Eptifibatide inhibition of whole blood occlusion on the T-TAS® AR Chip was reversed by the addition of FDPDs at approximately 200,000/μL (N=3). When FDPDs (approximately 200 k/μL) were added to the sample of whole blood inhibited with eptifibatide, the time to occlusion decreased to ‘normal’ at 9 minutes (FIG. 10).
Evaluation by T-TAS® using an AR chip. […]
Occlusion time was measured on the Total […] formation Analysis System (T-TAS®) 01 using AR chips (Collagen and Tissue FactorF stimulant). […] FDPDS were rehydrated, counted (Beckman Coulter AcT Diff 2 Cell Counter), and added to whole blood at the indicated final concentration. […]

[9] = tested on: pooled normal plasma; test: Activated clotting time (ACT) in pooled normal plasma with heparin and protamine; format: biochemical, human; conditions: heparin titration
Experimental: This experiment assessed how clinical proportions of Heparin and Protamine affect FDPD function. FDPDs were prepared according to the procedure in Example 15. An Activating Clotting Time (ACT) assay was performed to measure time to clot and TGA was performed to measure thrombin generation. An initial Heparin titration run was performed using ACT to find the minimum Heparin dose needed to reach abnormal clot time.
Activated clotting time was measured using pooled normal plasma with heparin (H) and protamine (P) as labeled on the x-axis; ½ P, P, and 3/2 P represent protamine doses of 4, 8, and 12 μg/ml, respectively. FDPDs, (referred to as “Tsomes” in FIG. 40) were added at 10, 25 or 50 K/μl. […] “K” in the legend stands for 10^3 FDPDS. All samples were run in duplicate. N=2. The experiment was repeated on separate days to improve statistical relevance.

[10] = cangrelor 1 μM combined with ADP 10 μM

In the case of `CCCCS(=O)(=O)N[C@@H](Cc1ccc(OCCCCC2CCNCC2)cc1)C(=O)O` [tirofiban], the “occlusion time of PRP” value ([1]; 100 ng/mL tirofiban) is reported as “no occlusion”.
In the case of `COC(=O)[C@H](c1ccccc1Cl)N1CCc2sccc2C1` [clopidogrel], the “time until platelet function is returned after stopping infusion” value [2] is listed as “approximately 1 hour”.
With `CC(=O)Oc1ccccc1C(=O)O` [aspirin, acetylsalicylic acid] the “occlusion time of PRP” value ([1]; PRP 30K/μL) was greater than 30 min, the “occlusion of PRP taken from an aspirin patient” value ([1]; ex vivo, subject on 81 mg/day of aspirin) was “failed to occlude” and the “arachidonic acid induced platelet aggregation in PRP” value ([3]; AA 500 ug/mL, aspirin 100-400 μM) was “eliminated arachidonic acid induced platelet aggregation entirely”. The “collagen stimulated platelet aggregation in PRP” value ([3]; collagen 10 ug/mL, aspirin 100-400 μM) was “partially inhibited”, the “platelet binding and aggregation on collagen under shear” value [4] was “largely limited” and the peak thrombin [5] was “about 45 nM”. The peak concentration [6] was 44 µM.
With `CSCCNc1nc(SCCC(F)(F)F)nc2c1ncn2[C@@H]1O[C@H](COP(=O)(O)OP(=O)(O)C(Cl)(Cl)P(=O)(O)O)[C@@H](O)[C@H]1O` [cangrelor] the “ADP-induced platelet aggregation in PRP” value ([3]; 10 μM ADP, cangrelor 0.5 μM-3.5 μM) was “complete inhibition”, the “occlusion time of PRP” value ([7]; 100 ng/mL cangrelor and ADP) was 26 min and the “occlusion time of ADP stimulated PRP” value [7] was 28.0 ± 3.0 min. For the same compound, the “area under the curve (AUC) of PRP” value [7, 10] was “dropped close to zero”, the “platelet adhesion and occlusion of PRP” value [7, 10] was “essentially eliminated; also recorded: inhibited occlusion essentially completely” and the “area under the curve (AUC) of PRP” value ([7]; cangrelor alone 1 μM) was “little effect”. The “occlusion / occlusion time of PRP” value ([7]; cangrelor alone 1 μM) was “did not exhibit inhibition; also recorded: little effect”.
In the case of `N=C(N)NCCCC[C@@H]1NC(=O)CCSSC[C@@H](C(N)=O)NC(=O)[C@@H]2CCCN2C(=O)[C@H](Cc2c[nH]c3ccccc23)NC(=O)[C@H](CC(=O)O)NC(=O)CNC1=O` [eptifibatide] ([Mpa][hArg]GDWPC-NH2; disulfide 1-7), the “occlusion time of PRP” value ([1]; 9 μM eptifibatide) is reported as “over 30 minutes”, the “collagen-induced platelet aggregation in PRP” value ([3]; collagen 10 μg/mL, all eptifibatide concentrations tested) is reported as “completely inhibited” and the “occlusion time of whole blood” value [8] is reported as 16 min. For the same compound, the “time for bleeding time to return to normal after drug stoppage” value [2] was no more than 1 h.
In the case of heparin, the “minimum Heparin dose needed to reach abnormal clot formation” value [9] is reported as 0.8 U/mL.
With `CC(C)Cc1ccc(C(C)C(=O)O)cc1` (centres unmarked) [ibuprofen] the “occlusion of PRP from ibuprofen patient” value ([1]; addition of ADP) was “abolished occlusion”, the “occlusion of PRP from ibuprofen patient” value ([1]; subject on 800 mg ibuprofen) was “demonstrated occlusion” and the “aggregation in response to arachidonic acid” value ([3]; PRP from subject on 800 mg ibuprofen) was “lack of aggregation”.
For `CCCSc1nc(N[C@@H]2C[C@H]2c2ccc(F)c(F)c2)c2nnn([C@@H]3C[C@H](OCCO)[C@@H](O)[C@H]3O)c2n1` [ticagrelor], the “time until platelet function can return after the last dosage” value [2] is given as “approximately 72 hours” and the “occlusion time of ADP stimulated PRP” value [7] is given as 28.0 ± 3.0 min.
